For one test, the target named is T1, human transporter OAT3 (Homo sapiens, UniProt Q8TCC7).
T1 construct: expressed in transfected cells; host or cells: MDCK-II
T1 sequence (Q8TCC7 1-542): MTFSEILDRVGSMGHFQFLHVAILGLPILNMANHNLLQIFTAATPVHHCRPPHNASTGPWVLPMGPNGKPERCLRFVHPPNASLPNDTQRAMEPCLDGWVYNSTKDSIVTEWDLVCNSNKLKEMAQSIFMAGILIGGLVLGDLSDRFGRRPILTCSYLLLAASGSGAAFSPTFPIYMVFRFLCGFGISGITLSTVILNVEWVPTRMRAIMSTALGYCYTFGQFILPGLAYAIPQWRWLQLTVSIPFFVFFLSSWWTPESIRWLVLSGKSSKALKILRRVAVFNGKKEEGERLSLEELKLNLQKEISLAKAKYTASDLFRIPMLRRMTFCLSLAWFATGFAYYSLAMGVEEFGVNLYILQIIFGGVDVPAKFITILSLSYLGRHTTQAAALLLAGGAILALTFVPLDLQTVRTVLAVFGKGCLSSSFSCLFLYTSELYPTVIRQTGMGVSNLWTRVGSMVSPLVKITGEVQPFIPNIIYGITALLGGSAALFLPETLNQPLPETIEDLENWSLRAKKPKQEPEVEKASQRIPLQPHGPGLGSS
Nature of the test: In vitro transport assay 2, OAT3. The format is cell-based. The method, then:
Compound 1 was studied in the concentration range of 0.1-10 μM for its potency against transport mediated by various transporter proteins.

Another test concerns monomeric ASYN. The test can be described thus: Monomeric ASYN in brain homogenates, L61 ASYN transgenic mice (ProteinSimple western). The format is in vivo. To be noted: 1, 5 or 10 mg/kg per day i.p., 1 month. As for the experimental part: Multiple in vivo administration studies of Compound 1 were carried out in the Line 61 (L61) mThy1-alpha-synuclein transgenic mouse model of Parkinson's disease (PD). The mThy1-alpha-synuclein transgenic mouse model overexpresses wild-type human ASYN under the Thy-1 promoter (commonly referred to as Line 61 transgenic mice; Rockenstein et al., 2002). […]
Alpha-synuclein (ASYN) is a neuronal protein whose dysregulation has been implicated in the pathogenesis of PD. The effects of Compound 1 on alpha-synuclein aggregation were assessed in both L61 ASYN transgenic and non-transgenic mice in a 1 month administration study. […] At the end of one month, the mice were sacrificed, and immunohistochemical (IHC) detection of total alpha-synuclein deposits, insoluble alpha-synuclein deposits (PK+resistant), microtubule-associated protein 1A/1B-light chain 3 (LC3), and monomeric alpha-synuclein levels were assessed in the harvested brain tissues.
Biochemical evaluations were conducted using a ProteinSimple© western biochemical evaluation. Briefly, samples were mixed with pre-calculated volumes of 0.1× Sample Buffer and 5× Fluorescent Master Mix to make a final sample concentration of 0.4 mg/mL in 10 μL solution for signal optimization and evaporation reduction. […]

A further test concerns amyloid beta. The test can be described thus: Amyloid beta staining (6E10), L41 APP transgenic mice. The test is classed as in vivo. Conditions: 5 mg/kg daily i.p. As for the experimental part: As described earlier, Line 41 transgenic mice express high levels of the mutant hAPP751 and develop mature plaques in the cortex, hippocampus, thalamus and olfactory region of mouse brain. The effects of Compound 1 on Amyloid beta plaque formation were assessed in both L41 APP transgenic and non-transgenic mice in a 1 month administration study. After 30 days, the mice were sacrificed, and immunofluorescence (IF) detection of amyloid beta were assessed in the harvested brain tissues.
The harvested brain tissues were drop fixed using 4% PFA and sectioned on a vibratome, and representative sections containing the neuropil of cortex, hippocampus and striatum were assessed for amyloid beta with standard IHC staining.
On approximately day 30, all subjects were euthanized within 2 hours of the last treatment and brain and other samples were collected. Brains were removed and divided sagitally. […]
Prepared slides were imaged at 40× using a high-resolution Hamamatsu Nanozoomer™ scanner located in the Microscopy Core in the UCSD Department of Neurosciences. Digital images were then transferred to Neuropore and analyzed using the Halo® imaging software package (Indica Labs, Corrales, N. Mex.). […] Images were evaluated for specimen and imaging problems and any issues were noted prior to unblinding of samples and statistical analyses.

Experimental findings from patent US20210290597A1, “METHOD OF TREATING A CONDITION ASSOCIATED WITH NEURODEGENERATION USING INHIBITORS OF OAT3” (Neuropore Therapies, Inc., priority 2018, published 2021) are described below.

pIC50: −log10 of the molar value. Where two headings read alike, the source gives them in different places.

For the compound `O=S(=O)(c1ccc(-n2cn[nH]c2=S)cc1)c1ccc(Cl)c(C(F)(F)F)c1` [Compound 1, 4-(4-((4-chloro-3-(trifluoromethyl)phenyl)sulfonyl)phenyl)-2,4-dihydro-3H-1,2,4-triazole-3-thione], the pIC50 – broadly, the negative decadic logarithm of the IC50, by convention in mol/L – at human transporter OAT3 (100 nM [3H]-estrone-3-sulfate, read-out: IC50, OAT3 (Substrate: E3S)) was 6.05; at human transporter OAT3 (10 μM [3H]-p-aminohippurate, read-out: IC50, OAT3 (Substrate: PAH)), 6.60. In addition, in the test with monomeric ASYN, the “cortical and hippocampal levels of monomeric ASYN in cytosolic fraction of brain homogenates” value is listed as “reduced”. Besides, the “amyloid beta level vs vehicle-treated Line 41 mice” value in the test with amyloid beta is listed as “reduces the amyloid beta level in a statistically significant manner”.
